Results reported in ChEMBL document CHEMBL2321716, “Exploring a new frontier in cancer treatment: targeting the ubiquitin and ubiquitin-like activating enzymes” (J Med Chem, 2013).
Each block holds one molecule with its values, some of them ahead of it.

Assays:
[1] = Inhibition of N-terminal GST-tagged human UAE-catalyzed UAE-Ub thioester intermediate formation expressed in HI5 insect cells after 5 mins by SDS-PAGE analysis
[2] = Inhibition of N-terminal GST-tagged human UAE-catalyzed [32P]-AMP:[a-32P]-ATP exchange expressed in HI5 insect cells by TLC analysis
[3] = molecular target: T1, Ubiquitin-like modifier-activating enzyme ATG7 (Homo sapiens, UniProt O95352); assay: Inhibition of ATG7 (unknown origin) in presence of ATP
T1 sequence (O95352 whole entry): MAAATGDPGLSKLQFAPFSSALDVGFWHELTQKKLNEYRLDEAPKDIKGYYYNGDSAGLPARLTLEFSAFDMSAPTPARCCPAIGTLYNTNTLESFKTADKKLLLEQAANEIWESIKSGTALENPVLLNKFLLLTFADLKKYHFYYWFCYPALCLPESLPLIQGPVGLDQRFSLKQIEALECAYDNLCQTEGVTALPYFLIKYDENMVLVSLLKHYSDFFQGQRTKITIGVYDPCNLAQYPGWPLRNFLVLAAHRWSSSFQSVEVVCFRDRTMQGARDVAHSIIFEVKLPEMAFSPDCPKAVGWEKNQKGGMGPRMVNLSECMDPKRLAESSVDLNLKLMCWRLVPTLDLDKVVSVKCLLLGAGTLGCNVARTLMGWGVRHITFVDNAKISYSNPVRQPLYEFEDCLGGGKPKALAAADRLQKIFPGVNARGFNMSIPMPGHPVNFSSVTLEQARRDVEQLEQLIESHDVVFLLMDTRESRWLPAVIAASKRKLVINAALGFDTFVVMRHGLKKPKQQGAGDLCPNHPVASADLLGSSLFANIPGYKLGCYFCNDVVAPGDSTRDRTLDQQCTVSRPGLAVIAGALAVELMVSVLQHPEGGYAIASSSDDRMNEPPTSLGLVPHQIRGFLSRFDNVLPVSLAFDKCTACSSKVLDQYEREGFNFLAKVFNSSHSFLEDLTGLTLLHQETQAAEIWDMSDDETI

[4] = Competitive inhibition of human UAE-catalyzed ATP-PPi exchange reaction expressed in Sf9 insect cells after 60 mins in presence of 10 uM ATP
[5] = Competitive inhibition of human UAE-catalyzed ATP-PPi exchange reaction expressed in Sf9 insect cells after 60 mins in presence of 1 mM ATP
[6] = molecular target: T2, Ubiquitin-like modifier-activating enzyme 6 (Homo sapiens, UniProt A0AVT1); assay: Inhibition of UBA6 (unknown origin) in presence of ATP
T2 sequence (A0AVT1 whole entry): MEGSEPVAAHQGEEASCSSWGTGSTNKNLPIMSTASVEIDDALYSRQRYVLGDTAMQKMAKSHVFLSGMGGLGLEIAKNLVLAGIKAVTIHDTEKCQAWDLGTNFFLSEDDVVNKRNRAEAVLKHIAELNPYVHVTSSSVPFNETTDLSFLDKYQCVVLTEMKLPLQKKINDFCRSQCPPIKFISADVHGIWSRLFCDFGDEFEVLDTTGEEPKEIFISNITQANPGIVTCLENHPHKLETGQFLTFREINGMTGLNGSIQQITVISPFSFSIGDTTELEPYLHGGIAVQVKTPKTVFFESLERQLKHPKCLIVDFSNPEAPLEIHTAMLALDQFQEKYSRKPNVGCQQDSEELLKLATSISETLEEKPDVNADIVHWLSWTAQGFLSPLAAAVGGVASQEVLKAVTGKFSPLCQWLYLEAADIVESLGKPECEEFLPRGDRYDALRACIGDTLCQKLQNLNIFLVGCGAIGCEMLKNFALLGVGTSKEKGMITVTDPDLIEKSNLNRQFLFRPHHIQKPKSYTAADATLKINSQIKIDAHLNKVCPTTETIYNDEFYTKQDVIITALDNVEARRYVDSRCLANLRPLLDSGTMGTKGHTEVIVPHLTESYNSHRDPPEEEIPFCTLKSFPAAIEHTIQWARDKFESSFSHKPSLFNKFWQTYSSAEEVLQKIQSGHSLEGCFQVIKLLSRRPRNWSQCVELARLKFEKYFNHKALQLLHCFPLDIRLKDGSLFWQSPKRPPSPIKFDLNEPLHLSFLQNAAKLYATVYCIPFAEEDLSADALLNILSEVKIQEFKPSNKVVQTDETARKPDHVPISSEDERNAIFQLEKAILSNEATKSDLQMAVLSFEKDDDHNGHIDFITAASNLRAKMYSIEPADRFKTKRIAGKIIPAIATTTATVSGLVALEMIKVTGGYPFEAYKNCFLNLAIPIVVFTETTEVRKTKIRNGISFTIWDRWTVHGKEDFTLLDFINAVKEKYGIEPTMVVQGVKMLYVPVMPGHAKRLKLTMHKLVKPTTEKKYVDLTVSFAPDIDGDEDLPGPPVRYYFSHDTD

[7] = molecular target: T3, Ubiquitin-like modifier-activating enzyme 7 (Homo sapiens, UniProt P41226); assay: Inhibition of UBA7 (unknown origin) in presence of ATP
T3 sequence (P41226 whole entry): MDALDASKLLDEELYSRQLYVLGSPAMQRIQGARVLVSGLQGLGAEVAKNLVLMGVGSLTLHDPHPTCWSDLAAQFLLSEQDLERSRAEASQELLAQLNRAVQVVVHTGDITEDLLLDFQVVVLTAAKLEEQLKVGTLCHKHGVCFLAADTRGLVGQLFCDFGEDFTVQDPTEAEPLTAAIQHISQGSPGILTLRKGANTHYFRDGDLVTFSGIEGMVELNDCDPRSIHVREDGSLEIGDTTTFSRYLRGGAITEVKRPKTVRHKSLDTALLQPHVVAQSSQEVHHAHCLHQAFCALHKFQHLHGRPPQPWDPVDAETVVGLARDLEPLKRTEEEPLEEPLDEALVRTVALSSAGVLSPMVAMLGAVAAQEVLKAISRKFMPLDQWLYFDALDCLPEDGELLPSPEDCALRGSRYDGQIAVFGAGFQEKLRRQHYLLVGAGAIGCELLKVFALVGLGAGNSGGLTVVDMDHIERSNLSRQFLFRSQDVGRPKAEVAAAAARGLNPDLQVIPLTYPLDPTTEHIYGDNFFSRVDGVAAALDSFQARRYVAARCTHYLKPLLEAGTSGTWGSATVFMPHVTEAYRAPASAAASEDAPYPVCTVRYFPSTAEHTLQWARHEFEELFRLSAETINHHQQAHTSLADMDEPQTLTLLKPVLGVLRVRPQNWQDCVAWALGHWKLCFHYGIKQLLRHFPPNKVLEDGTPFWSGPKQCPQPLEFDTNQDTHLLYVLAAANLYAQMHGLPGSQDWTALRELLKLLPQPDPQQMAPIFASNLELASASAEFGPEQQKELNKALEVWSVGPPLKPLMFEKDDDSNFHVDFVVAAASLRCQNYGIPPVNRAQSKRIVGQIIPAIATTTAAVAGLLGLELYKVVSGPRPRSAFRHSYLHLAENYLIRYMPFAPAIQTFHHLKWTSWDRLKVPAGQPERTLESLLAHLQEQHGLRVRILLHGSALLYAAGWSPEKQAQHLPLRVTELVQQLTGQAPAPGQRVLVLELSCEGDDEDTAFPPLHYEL

[8] = molecular target: T4, SUMO-activating enzyme subunit 1 (Homo sapiens, UniProt Q9UBE0); assay: Inhibition of SAE (unknown origin) in presence of ATP
T4 sequence (Q9UBE0 whole entry): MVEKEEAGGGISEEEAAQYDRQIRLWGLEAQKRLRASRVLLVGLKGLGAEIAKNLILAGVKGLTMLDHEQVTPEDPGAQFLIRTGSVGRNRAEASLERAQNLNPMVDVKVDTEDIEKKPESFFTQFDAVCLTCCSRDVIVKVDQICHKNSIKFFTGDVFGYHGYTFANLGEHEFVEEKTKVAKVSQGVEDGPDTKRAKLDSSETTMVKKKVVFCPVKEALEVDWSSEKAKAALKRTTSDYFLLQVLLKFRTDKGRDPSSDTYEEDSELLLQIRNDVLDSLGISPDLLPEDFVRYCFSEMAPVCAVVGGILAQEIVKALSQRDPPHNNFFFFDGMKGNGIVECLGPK

[9] = Inhibition of human UAE-catalyzed E1-E2 transthiolation reaction expressed in Sf9 insect cells after 90 mins by TR-FRET assay
[10] = Inhibition of UAE (unknown origin) in presence of ATP; parameters: species or system Homo sapiens
[11] = molecular target: T5, NEDD8-activating enzyme E1 catalytic subunit (Homo sapiens, UniProt Q8TBC4); assay: Inhibition of NAE (unknown origin)-catalyzed transthiolation of NEDD8 from NAE to Ubc12
T5 sequence (Q8TBC4 whole entry): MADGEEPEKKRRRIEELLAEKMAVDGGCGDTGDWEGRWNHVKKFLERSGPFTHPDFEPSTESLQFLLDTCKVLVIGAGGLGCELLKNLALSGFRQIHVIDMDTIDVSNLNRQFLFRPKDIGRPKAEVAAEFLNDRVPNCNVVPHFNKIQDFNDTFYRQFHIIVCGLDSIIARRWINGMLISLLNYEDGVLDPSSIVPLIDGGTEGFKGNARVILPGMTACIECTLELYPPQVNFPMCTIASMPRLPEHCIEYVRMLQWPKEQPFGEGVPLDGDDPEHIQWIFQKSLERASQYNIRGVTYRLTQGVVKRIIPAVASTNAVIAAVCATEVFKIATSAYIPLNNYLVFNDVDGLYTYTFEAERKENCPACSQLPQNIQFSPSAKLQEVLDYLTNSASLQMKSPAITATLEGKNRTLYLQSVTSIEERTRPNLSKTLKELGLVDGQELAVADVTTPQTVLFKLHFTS

[12] = molecular target: T6, NEDD8-activating enzyme E1 regulatory subunit (Homo sapiens, UniProt Q13564); assay: Inhibition of NAE (unknown origin) assessed as decrease in NEDD8-Ubcl2 formation
T6 sequence (Q13564 whole entry): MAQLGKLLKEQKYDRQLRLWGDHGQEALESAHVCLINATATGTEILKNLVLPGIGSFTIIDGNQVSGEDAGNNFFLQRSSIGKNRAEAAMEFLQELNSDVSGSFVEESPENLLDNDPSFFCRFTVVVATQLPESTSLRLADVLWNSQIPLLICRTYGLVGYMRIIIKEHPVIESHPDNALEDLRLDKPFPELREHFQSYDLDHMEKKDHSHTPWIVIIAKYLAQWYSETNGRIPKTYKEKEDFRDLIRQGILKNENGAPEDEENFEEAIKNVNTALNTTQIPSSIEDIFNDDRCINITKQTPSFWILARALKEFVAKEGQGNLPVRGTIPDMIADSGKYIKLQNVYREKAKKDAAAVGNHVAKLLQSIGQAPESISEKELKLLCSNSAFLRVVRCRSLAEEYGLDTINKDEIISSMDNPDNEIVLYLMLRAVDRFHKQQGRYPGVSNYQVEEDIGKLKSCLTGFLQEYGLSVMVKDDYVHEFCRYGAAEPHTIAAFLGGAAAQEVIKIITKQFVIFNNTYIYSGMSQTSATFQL

Caco-2 = assay: Cytotoxicity against human Caco2 cells by MTT assay; type: functional, cell-based
[13] = molecular target: T5, NEDD8-activating enzyme E1 catalytic subunit; assay: Inhibition of NAE (unknown origin)-catalyzed NEDD8-Ubcl2 intermediate formation by densitometric analysis
MCF7 = assay: Cytotoxicity against human MCF7 cells after 48 hrs by WST8 assay; type: functional, cell-based; settings: MCF7, 48 h
[14] = Inhibition of recombinant yeast UAE-catalyzed UAE-Ub intermediate formation after 15 mins by densitometric analysis; parameters: species or system Saccharomyces cerevisiae

SMILES: CCCCCCCCCCNCCSSCc1ccc(Cl)cc1
- IC50 [1]: 9 µM
- IC50 [2]: 13 µM

SMILES: C/C=C/[C@]12C(=O)[C@H]3O[C@H]3[C@H](O)[C@H]1[C@H]1C(=C[C@@H]2C)C(=O)[C@H]2O[C@H]2[C@@H]1O
- IC50 (MCF7): 5.4 µM
- IC50 [14]: 9.4 µM

SMILES: CCCC/C=C/[C@]12C(=O)[C@H]3O[C@H]3[C@H](O)[C@H]1[C@H]1C(=C[C@@H]2CCCC)C(=O)[C@H]2O[C@H]2[C@@H]1O
- IC50 (MCF7): 1 µM
- IC50 [14]: 3.5 µM

Continued, in another order:

- IC50 [3]: > 100 µM
- IC50 [6]: 0.92 µM
- IC50 [7]: 4 µM
- IC50 [10]: 5.2 µM
SMILES: NS(=O)(=O)OC[C@H]1O[C@@H](n2cnc3c(N[C@H]4CCc5ccccc54)ncnc32)[C@H](O)[C@@H]1O
- IC50 [4]: 0.0102 µM
- IC50 [5]: 5 µM
- IC50 [8]: 6.4 µM
- IC50 [9]: 0.0014 µM

- IC50 [11]: 20 µM
- IC50 [12]: 5 µM
SMILES: O=c1cc(-c2ccc(O)cc2)oc2cc(O)c(-c3c(O)cc4oc(-c5ccc(O)cc5)cc(=O)c4c3O)c(O)c12

- IC50 [13]: 0.8 µM
SMILES: O=C(O)CNC(=O)CNC(=O)COc1ccc2nc3n(c(=O)c2c1)CCC3
- IC50 (Caco-2): 10 µM
